Laboratory results: US12599136B2, “Substituted isophthalic acid diamides and their use as herbicides” (Bayer Aktiengesellschaft, priority 2020, dated 2026)

Tests used:
Format in all cases: in vivo
Alopecurus myosuroides [1] = test: Pre-emergence herbicidal action against ALOMY; details: visual score after 3 weeks vs untreated controls
From the text: (§1) Seeds of monocotyledonous and dicotyledonous weed plants and crop plants are laid out in sandy loam soil in wood-fiber pots and covered with soil. The compounds of the invention, formulated in the form of wettable powders (WP) or as emulsion concentrates (EC), are then applied to the surface of the covering soil in the form of an aqueous suspension or emulsion at a water application rate equivalent to 600 to 800 l/ha, with addition of 0.2% wetting agent. After the treatment, the pots are placed in a greenhouse and kept under good growth conditions for the trial plants. The damage to the test plants is scored visually after a test period of 3 weeks by comparison with untreated controls (herbicidal activity in percent (%): 100% activity=the plants have died, 0% activity=like control plants). […] The tables below illustrate, in an illustrative manner, the post-emergence herbicidal action of the compounds of the invention, the herbicidal activity being stated in percent.

Veronica persica [2] = test: Pre-emergence herbicidal action against VERPE
From the text: as §1

Abutilon theophrasti [3] = test: Post-emergence herbicidal action against ABUTH
Experimental: (§2) Seeds of monocotyledonous and dicotyledonous weed and crop plants are laid out in sandy loam soil in wood-fiber pots, covered with soil and cultivated in a greenhouse under good growth conditions. 2 to 3 weeks after sowing, the test plants are treated at the one-leaf stage. The compounds of the invention, formulated in the form of wettable powders (WP) or as emulsion concentrates (EC), are then sprayed onto the green parts of the plants in the form of an aqueous suspension or emulsion at a water application rate equivalent to 600 to 800 l/ha, with addition of 0.2% wetting agent. After the test plants have been left to stand in the greenhouse under optimal growth conditions for about 3 weeks, the action of the preparations is assessed visually in comparison to untreated controls (herbicidal action in percent (%): 100% activity=the plants have died, 0% activity=like control plants). […] The tables below illustrate, in an illustrative manner, the post-emergence herbicidal action of the compounds of the invention, the herbicidal activity being stated in percent.

Amaranthus retroflexus [4] = test: Pre-emergence herbicidal action against AMARE; details: visual score after 3 weeks vs untreated controls
From the text: as §1

Echinochloa crus-galli [5] = test: Pre-emergence herbicidal action against ECHCG; details: 80 g/ha; visual score after 3 weeks vs untreated controls
From the text: as §1

Polygonum convolvulus = test: Pre-emergence herbicidal action against POLCO; details: 80 g/ha
From the text: as §1

Amaranthus retroflexus [6] = test: Post-emergence herbicidal action against AMARE; details: visual assessment about 3 weeks after treatment
Experimental: as §2

Alopecurus myosuroides [7] = test: Post-emergence herbicidal action against ALOMY; details: 20 g/ha
Experimental: as §2

Abutilon theophrasti [8] = test: Pre-emergence herbicidal action against ABUTH; details: visual score after 3 weeks vs untreated controls
From the text: as §1

Setaria viridis [9] = test: Post-emergence herbicidal action against SETVI; details: 20 g/ha, visual assessment about 3 weeks after treatment
Experimental: as §2

Echinochloa crus-galli [10] = test: Post-emergence herbicidal action against ECHCG; details: visual assessment about 3 weeks after treatment
Experimental: as §2

Matricaria inodora [11] = test: Pre-emergence herbicidal action against MATIN; details: visual score after 3 weeks vs untreated controls
From the text: as §1

Veronica persica [12] = test: Post-emergence herbicidal action against VERPE; details: 20 g/ha, visual assessment about 3 weeks after treatment
Experimental: as §2

Viola tricolor [13] = test: Post-emergence herbicidal action against VIOTR
Experimental: as §2

Viola tricolor [14] = test: Pre-emergence herbicidal action against VIOTR
From the text: as §1

Matricaria inodora [15] = test: Post-emergence herbicidal action against MATIN; details: 20 g/ha, visual assessment about 3 weeks after treatment
Experimental: as §2

Setaria viridis [16] = test: Pre-emergence herbicidal action against SETVI; details: 80 g/ha
From the text: as §1

Avena fatua = test: Post-emergence herbicidal action against AVEFA; details: 20 g/ha, visual assessment about 3 weeks after treatment
Experimental: as §2

Digitaria sanguinalis = test: Pre-emergence herbicidal action against DIGSA
From the text: as §1

Pharbitis purpurea = test: Post-emergence herbicidal action against PHBPU; details: 20 g/ha, visual assessment about 3 weeks after treatment
Experimental: as §2

Row | SMILES | Pre-emergence action against ALOMY (Alopecurus myosuroides [1]; 80 g/ha) | Pre-emergence action against VERPE (Veronica persica [2]; 80 g/ha) | Post-emergence action against ABUTH (Abutilon theophrasti [3]; 5 g/ha) | Post-emergence action against ABUTH (Abutilon theophrasti [3]; 20 g/ha) | Pre-emergence action against AMARE (Amaranthus retroflexus [4]; 20 g/ha) | Pre-emergence action against AMARE (Amaranthus retroflexus [4]; 80 g/ha) | Pre-emergence action against ECHCG (Echinochloa crus-galli [5]) | Post-emergence action against AMARE in % (Amaranthus retroflexus [6]; 5 g/ha) | Post-emergence action against AMARE in % (Amaranthus retroflexus [6]; 20 g/ha) | Post-emergence action against ALOMY (Alopecurus myosuroides [7]) | Pre-emergence action against ABUTH (Abutilon theophrasti [8]; 80 g/ha) | Post-emergence action against ECHCG in % (Echinochloa crus-galli [10]; 20 g/ha) | Pre-emergence action against MATIN (Matricaria inodora [11]; 20 g/ha) | Pre-emergence action against MATIN (Matricaria inodora [11]; 80 g/ha) | Post-emergence action against VIOTR in % (Viola tricolor [13]; 20 g/ha) | Pre-emergence action against VIOTR (Viola tricolor [14]; 20 g/ha) | Pre-emergence action against VIOTR (Viola tricolor [14]; 80 g/ha) | Pre-emergence action against SETVI (Setaria viridis [16]) | Pre-emergence action against ABUTH (Abutilon theophrasti [8]; 20 g/ha) | Pre-emergence action against DIGSA (Digitaria sanguinalis; 80 g/ha) | other results
1 | CCn1nnnc1NC(=O)c1ccc(C(F)F)c(C(=O)N(C)C)c1C [Example 2-50] | 90% | 80% | 90% | 90% | 90% | 100% | 80% | 100% | 100% | 80% | 100% | 90% | 90% | 90% | 90% |  |  |  |  |  | Pre-emergence action against POLCO (Polygonum convolvulus): 90%; Post-emergence action against SETVI in % (Setaria viridis [9]): 80%; Post-emergence action against ECHCG in % (Echinochloa crus-galli [10]; 5 g/ha): 80%; Post-emergence action against VERPE in % (Veronica persica [12]): 90%
2 | CCN(C(=O)c1c(C(F)(F)F)ccc(C(=O)Nc2nnnn2CC)c1Cl)C1CC1 [Example 2-136] | 100% |  | 80% | 90% | 100% | 100% | 90% | 100% | 100% | 90% | 100% | 90% | 80% | 100% | 100% | 100% | 100% | 100% | 100% | 100% | Post-emergence action against MATIN in % (Matricaria inodora [15]): 80%; Pre-emergence action against ALOMY (Alopecurus myosuroides [1]; 20 g/ha): 90%; Post-emergence action against AVEFA in % (Avena fatua): 80%; Pre-emergence action against DIGSA (Digitaria sanguinalis; 20 g/ha): 90%; Post-emergence action against VIOTR in % (Viola tricolor [13]; 5 g/ha): 100%
3 | CCOC(=O)[C@@H]1CCCN1C(=O)c1c(C(F)(F)F)ccc(C(=O)Nc2nnnn2CC)c1Cl [Example 2-398] |  |  |  |  |  | 100% |  |  |  |  | 100% |  |  | 100% |  |  | 100% | 80% | 80% | 90% | 
4 | CCOC(=O)[C@@H]1CCCN1C(=O)c1c(C(F)(F)F)ccc(C(=O)Nc2nnnn2CC)c1C [Example 2-399] |  | 100% |  |  | 90% | 100% | 90% |  | 80% |  | 100% | 80% | 90% | 100% |  | 90% | 100% | 100% | 100% | 100% | Post-emergence action against MATIN in % (Matricaria inodora [15]): 80%; Pre-emergence action against VERPE (Veronica persica [2]; 20 g/ha): 100%; Post-emergence action against PHBPU in % (Pharbitis purpurea): 90%; Pre-emergence action against DIGSA (Digitaria sanguinalis; 20 g/ha): 90%
